Laboratory results taken from US20240109877A1, “PYRIMIDINES FOR DEGRADING BRUTON'S TYROSINE KINASE” (AbbVie Inc., priority 2022, published 2024).

Tests used:
[1] = molecular target: BTK protein in human whole blood (Homo sapiens (Human), UniProt Q06187); assay: Btk protein in human whole blood MSD ELISA based assay (Btk degradation); assay type: cell-based; details: human whole blood from healthy donors, 6 hours at 37° C., half maximal degradation concentration; read-out: hWB BTK DC50
Method: Btk protein degradation was tested using an Meso Scale Discovery-ELISA system (MSD-ELISA): (1) Test compounds were added to human whole blood; (2) human whole blood cells treated with test compounds were lysed; (3) lysed cells were treated with capture antibody, an antibody to Btk; (4) lysed cells were treated with […] to Btk; and (5) lysed cells were treated with anti-mouse antibody (tagged).
Specifically, about 80 μl of fresh human whole blood from healthy donors was transferred into each well of a 96-well V-bottom plate (Costar, Cat No.3894). Using a TECANTM D300e Digital Dispenser (Tecan)), 1:4 serially diluted compounds [(8 pt assay) in DMSO solution (final 0.2%) starting at 3 μM top concentration], were added in duplicate. Thereafter, plates were placed in a 37° C. incubator and incubated for 6 hours.
At the end of incubation, 80 μl of 2× CST lysis buffer (Cell Signaling Technology, Cat No. 9803), prepared from a 10× stock solution, was added per well to lyse the blood. Plates were then sealed with a plate sealer and the samples were frozen overnight at −80° C.
Total amount of BTK protein remaining in the blood samples after compound treatment was measured using MSD-ELISA. After thawing the frozen plates, blood lysates were mixed thoroughly and transferred to small spot high-bind MSD plates (Meso Scale Discovery, Cat No. L45XB-3) and coated with capturing antibody, rabbit anti-human BTK (D3H5) (Cell Signaling Technology, Cat No. 8547CF). Thereafter, primary detection antibody, mouse anti-human BTK monoclonal antibody, (BD Biosciences, Cat No. 611117) and secondary detection antibody, anti-mouse SULFO-TAG (Meso Scale Discovery, Cat No. R32AC-1) were added. The assay plates were read on an MSD S600 plate reader by the addition of 2× MSD read buffer (Meso Scale Discovery, R92TC-1). All reagent transfers, including blood lysis, was conducted using a Biomed i7 liquid handler. From the dose response curves, DC50 values were calculated by averaging data from duplicate experiments. and Curve fitting was done by non-linear regression using GraphPad Prism. The DC50 values are reported in Table 2 in the hWB BTK DC50 (nM) column The Dmax values represent the maximum amount of BTK degradation observed upon compound treatment compared to DMSO only treated samples. The dMax (%) values are reported in Table 2 in the hWB BTK dMax (%) column.

BTK in mouse bone marrow = BTK in mouse bone marrow (Mus musculus (Mouse), UniProt P35991); assay: Mouse Bone Marrow Assay (MSD ELISA of BTK degradation in mouse bone marrow); assay type: in vivo; details: female C57BL/6J mice, single dose of Dose A, bone marrow collected after 24 hours, % remaining BTK in vehicle versus treated samples
Sequence of BTK in mouse bone marrow (P35991 whole entry): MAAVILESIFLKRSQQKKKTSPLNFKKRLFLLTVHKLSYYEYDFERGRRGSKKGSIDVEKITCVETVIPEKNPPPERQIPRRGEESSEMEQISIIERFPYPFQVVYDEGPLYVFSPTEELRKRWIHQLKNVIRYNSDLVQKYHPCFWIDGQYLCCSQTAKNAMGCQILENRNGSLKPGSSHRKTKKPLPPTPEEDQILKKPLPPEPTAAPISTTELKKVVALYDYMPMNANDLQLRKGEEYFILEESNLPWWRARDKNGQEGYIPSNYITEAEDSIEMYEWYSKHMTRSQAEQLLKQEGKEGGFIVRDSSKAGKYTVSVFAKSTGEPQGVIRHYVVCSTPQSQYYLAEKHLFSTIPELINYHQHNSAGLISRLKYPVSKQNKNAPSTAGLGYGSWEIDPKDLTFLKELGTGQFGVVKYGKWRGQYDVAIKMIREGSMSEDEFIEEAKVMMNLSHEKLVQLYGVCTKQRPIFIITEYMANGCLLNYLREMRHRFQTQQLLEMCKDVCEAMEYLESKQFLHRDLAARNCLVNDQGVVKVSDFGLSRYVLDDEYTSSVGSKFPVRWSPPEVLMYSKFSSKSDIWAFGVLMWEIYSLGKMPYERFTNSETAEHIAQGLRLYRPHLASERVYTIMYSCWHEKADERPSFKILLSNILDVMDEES
Method: Female C57BL/6J mice (Jackson Laboratories) were used for this study. Compounds or vehicle/control were prepped with EtOH; PEG-400; Phosal 53 MCT (10:30:60, v/v). Four mice were tested per compound or vehicle/control. On Day 1, mice were administered a single dose of Dose A. On Day 2 (after 24 hours), tissue (bone marrow) was collected from one hind leg per mouse.
An MSD (Meso Scale Discovery) ELISA (enzyme-linked immunosorbent assay) based assay was used to determine BTK degradation in mouse bone marrow. The following materials and equipment were used: 10% NP40 solution (nonionic polyoxyethylene surfactant, ThermoFisher, cat no. 28324); protease inhibitor mini tablet (Roche, cat no. 05 892 970 001); PhosphoSTOP™ tablet (Roche, cat no. 04 906 837 001); Pierce™ BCA Protein Assay Kit (Thermofisher, Cat No. 23225); Precellys® 2 mL lysing tube with 2.8 mm beads (VWR, cat no. 10032-756); Bertin Precellys® 24/Cryolys ® cooling system; 96-well MSD streptavidin pre-coated plates (MSD, cat no. L15SA-1); MSD Blocker A (MSD, cat no. R93BA-4); capture antibody, biotinylated BTK mAb (BD Biosciences, cat no. 624008; custom order); primary detection antibody, BTK RpAb (rabbit polyclonal antibody, CST, cat no. 8547S, D3H5 clone); secondary detection antibody, anti-Rabbit-Sulfo-Tag (MSD, cat no. R32AB-1); read Buffer, 4× (MSD, cat no. R92TC-1); recombinant BTK protein (Thermofisher, cat no. PR5442A); MSD Tris Wash Buffer (10×) (MSD, cat no. R61TX-1); PBS (phosphate-buffered saline); deionized water (diH2O); Lysis Buffer [0.2% NP40 in PBS+Protease Inhibitor tablet (1 tablet/10 mL)+PhosphoSTOP tablet (1 tablet/10 mL)]; 3% MSD Blocker A [MSD Blocker A+450 mL diH2O+50 mL]; and 10× MSD Tris Wash Buffer.
Lysis buffer [(PBS+0.2% NP40+PI (protease inhibitor)+PhosphoSTOP)]was prepared and put on ice until it was fully cold. Ice cold lysis buffer […] was added to each Precellys® tube containing beads and bone marrow sample. Sample tubes were transferred into Precellys® machine and homogenized using 5000 rpm -2×20 seconds. The sample lysates were centrifuged at 14,000 rpm for 20 minutes at 4° C. after homogenizing.
The protein concentration was determined using Pierce™ BCA Protein Assay Kit following manufacturer's recommended protocol. The protein normalized working solution was prepared, using 30 μg protein per sample lysate for assay.
A 300 ng/ml working stock solution of recombinant BTK protein in lysis buffer was prepared, and the sample was serially diluted at 3-fold dilution (10-point assay, highest concentration was 300 ng/mL and lowest concentration was 0.015 ng/mL)
MSD plate coating: Coating antibody (biotinylated-BTK mAb) stock solution was prepared at 1 μg/mL in PBS buffer. 50 μL/well capture antibody (Biotinylated BTK mAb) solution was added, and the plates were shaken gently at ambient temperature for two hours. The plates were washed 3 times with 1× MSD Tris Wash Buffer in a plate washer (300 μL/well), and the plates were blocked with 3% MSD Blocker A (150 μL/well). The plates were incubated for an additional 1-2 hours at ambient temperature with gentle shaking. The plates were washed 3 times with 1× MSD wash buffer using plate washer. Bone marrow lysates (30 μg) at a final volume of 50 μL/well were added into the plates. The serially diluted standard samples were added to the same plates at a final volume of 50 μL/well. The plates were incubated overnight at 4° C. with gentle shaking.
The plates were washed three times with 1× MSD wash buffer (prepared from 10× concentration buffer) using plate washer. Primary detection antibody at 50 μL/well was added (BTK RpAb; 1:1000 dilution in 1% MSD Blocker A). The plates were incubated for two hours at ambient temperature with gentle shaking. The plates were washed three times with 1× MSD wash buffer using plate washer. Anti-Rabbit-SULFO-TAG secondary antibodies (50 μl/well) were added, 1:500 diluted in 1% MSD Blocker A, and the plates were incubated for one to two hours at ambient temperature. […]

Sequence of BTK protein in human whole blood (Q06187 whole entry): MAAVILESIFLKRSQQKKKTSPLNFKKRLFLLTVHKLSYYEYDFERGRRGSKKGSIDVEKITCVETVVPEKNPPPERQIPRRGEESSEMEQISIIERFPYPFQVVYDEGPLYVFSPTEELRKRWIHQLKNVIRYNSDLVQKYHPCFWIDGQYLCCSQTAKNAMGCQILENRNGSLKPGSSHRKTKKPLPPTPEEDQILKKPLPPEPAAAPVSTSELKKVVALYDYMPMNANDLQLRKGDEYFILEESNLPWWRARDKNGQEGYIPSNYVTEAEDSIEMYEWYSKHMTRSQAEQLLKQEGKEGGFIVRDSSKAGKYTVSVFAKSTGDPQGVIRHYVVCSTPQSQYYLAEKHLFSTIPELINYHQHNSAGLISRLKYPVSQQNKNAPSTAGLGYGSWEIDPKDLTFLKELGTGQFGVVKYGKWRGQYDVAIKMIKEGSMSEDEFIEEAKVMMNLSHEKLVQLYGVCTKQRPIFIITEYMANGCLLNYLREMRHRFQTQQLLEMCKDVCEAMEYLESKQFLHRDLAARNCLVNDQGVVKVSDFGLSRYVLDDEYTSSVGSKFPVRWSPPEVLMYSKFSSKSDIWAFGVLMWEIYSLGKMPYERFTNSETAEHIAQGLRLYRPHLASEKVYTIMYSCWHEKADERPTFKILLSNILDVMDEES

Row | Compound | DC50 [1] | Mouse Bone Marrow (%), % remaining BTK (BTK in mouse bone marrow)
1 | Cc1c([C@@H](C)NC(=O)c2nc(C(C)(C)C)no2)ccc(-c2cc(Nc3ccc(N4CCN(CCc5ccc(N6CCC(=O)NC6=O)cc5)C[C@@H]4C)cn3)ncn2)c1F [Example 10, 3-tert-butyl-N-[(1R)-1-{4-[6-({5-[(2S)-4-{2-[4-(2,4-dioxo-1,3-diazinan-1-yl)phenyl]ethyl}-2-methylpiperazin-1-yl]pyridin-2-yl}amino)pyrimidin-4-yl]-3-fluoro-2-methylphenyl}ethyl]-1,2,4-oxadiazole-5-carboxamide] | 3.04 nM | 9%
2 | Cc1c([C@@H](C)NC(=O)c2nc(C(C)(C)C)no2)ccc(-c2cc(Nc3ccc(N4CCN(CCc5ccc(N6CCC(=O)NC6=O)cc5)CC4)cn3)ncn2)c1F [Example 11, 3-tert-butyl-N-{(1R)-1-[4-(6-{[5-(4-{2-[4-(2,4-dioxo-1,3-diazinan-1-yl)phenyl]ethyl}piperazin-1-yl)pyridin-2-yl]amino}pyrimidin-4-yl)-3-fluoro-2-methylphenyl]ethyl}-1,2,4-oxadiazole-5-carboxamide] | 4.31 nM | 29%
